For 5 compounds, IC50 and EC50 results are on record in patent US11440923B2, “Substituted macrocyclic indole derivatives” (Bayer Aktiengesellschaft, priority 2017, dated 2022).

Counter-ions that a name gives are not always drawn. Like-named read-outs stand apart in the source and are kept apart here.

Data set [1] has as its target BCL-XL (Homo sapiens (Human), UniProt Q07817). In words: Protein-protein interaction assay BCL-XL/Bad BH3 peptide (BCL-XL assay, TR-FRET). The data set is classed as binding. The settings on record: read-out: BCL-XL Assay IC50 (median). The procedure:
Assay 2 Protein-Protein Interaction Assay: BCL-XL/Bad BH3 Peptide (BCL-XL Assay)
The dose-dependent inhibition by the compounds described in this invention of the interaction between BCL-XL and the BH3 domain of Bad (both human) was determined using a steady state binding competition assay with time-resolved fluorescence energy transfer (TR-FRET) readout. For that purpose BCL-XL (amino acids 1-212, C-terminal fused to a hexahistidine (6×His) tag (SEQ ID 3) and a synthetic Bad BH3-derived peptide of sequence Biotin-PEG2-PEG2-[…]-Nle-[…]-amide (SEQ ID 4) served as protein receptor and tracer ligand respectively. The recombinant BCL-XL protein (expressed in E. coli) was purchased from BPS Bioscience (San Diego, Calif., USA). The Bad BH3-derived peptide can be obtained from e.g. Biosyntan (Berlin, Germany).
In the assay 11 different concentrations of each compound (0.1 nM, 0.33 nM, 1.1 nM, 3.8 nM, 13 nM, 44 nM, 0.15 μM, 0.51 μM, 1.7 μM, 5.9 μM and 20 μM) were typically measured as duplicates in the same microtiter plate. For that, 100-fold concentrated DMSO solutions were prepared by serial dilutions (1:3.4) of a 2 mM stock solution in a clear, 384-well microtiter plate (Greiner Bio-One, Frickenhausen, Germany). From there, 50 nl were transferred in a dark test plate (Greiner Bio-One, Frickenhausen, Germany). The assay was initiated by addition of 2 μL of a 2,5-fold concentrated His-BCL-XL solution (usually for a 1 nM end concentration in 5 μL reaction volume) in aqueous assay buffer [50 mM Tris/HCl pH 7, 100 mM sodium chloride (NaCl), 50 mM potassium fluoride (KF), 0.005% Tween-20, 2 mM DTT, 0.1% bovine gamma globulin (BGG)] to the compounds in the assay plate. This was followed by a 10-minute incubation step at 22° C. for pre-equilibration of the putative complex between His-BCL-XL and the compounds. After that, 3 μL of a 1.67-fold concentrated solution (in assay buffer) consisting of Bad BH3-derived peptide (1 nM end concentration) and TR-FRET detection reagents [1.67 nM anti-His-Eu cryptate and 1.67 nM streptavidin-XL665 (both from Cisbio Bioassays, Codolet, France)], were added.
The mixture was incubated in the dark for one hour at 22° C. and then overnight at 4° C. The formation of BCL-XL/Bad complexes was determined by measuring the resonance energy transfer of the anti-His- Eu-cryptate antibody to the streptavidin-XL665 present in the reaction. For that purpose, the fluorescence emission at 620 nm and 665 nm after excitation at 330-350 nm was measured in a TR-FRET measuring instrument, for instance a Rubystar or a Pherastar (both from BMG Lab Technologies, Offenburg, Germany) or a Viewlux (Perkin-Elmer). The ratio of the emission at 665 nm and at 622 nm was used as indicator of the amount of BCL-XL/Bad complexes present.
(§1) The resulting data (ratio) were normalized, taking 0% inhibition as the mean value of control measurements (usually 32 data points) where all reagents were included. In this case 50 nl DMSO were used instead of compounds. […] IC50 values were determined by regression analysis based on a 4 parameter equation (minimum, maximum, IC50, Hill; Y=Max+(Min−Max)/(1+(X/IC50)^Hill) using the Screener Software (Genedata).

In data set [2] the test system is SUDHL5 cells. In words: Induction of caspase-3/7 activity in SUDHL5 cells (Assay 4). It counts as cell-based. An outline of the steps: (§2)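 Caspase-3/7 activity measured in DLBCL lines after 3 h compound exposure at 37 °C, following overnight plating; Caspase-Glo 3/7 luminescence read after 1 h at 37 °C. Medium-only background subtracted, values normalized to mean of DMSO-treated cells.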

Data set [3] concerns SUDHL10 cells. Description: Induction of caspase-3/7 activity in SUDHL10 cells (Assay 4). The data set is classed as cell-based. An outline of the steps: as §2
Data set [4] concerns SUDHL5 cells. In words: Induction of cytotoxicity in SUDHL5 cells (Assay 6). It counts as cell-based. The conditions noted are these: 5 h, CellTiter-Glo, read-out: Cytotox SUDHL5 IC50 (median). An outline of the steps:
(§3)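 Following overnight seeding at 37 °C, cells are treated with compound for 5 h, after which CellTiter-Glo reagent is added and luminescence measured following a 15 min room-temperature shake.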

The subject of data set [5] is SUDHL10 cells. Description: Induction of cytotoxicity in SUDHL10 cells (Assay 6). The data set is classed as cell-based. The settings on record: 5 h, CellTiter-Glo, read-out: Cytotox SUDHL10 IC50 (median). An outline of the steps:
as §3

The subject of data set [6] is AMO-1 cells. Description: Antiproliferation assay AMO-1 (Assay 7). The data set is classed as cell-based. The method in brief:
(§4)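 Anti-proliferative effect was measured by CellTiter-Glo ATP luminescence after 72 h compound exposure at 37° C, following overnight plating. IC50s were derived using a parallel time-zero plate and DMSO-treated controls as reference points.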

In data set [7] the test system is HMC-1-8 cells. Description: Antiproliferation assay HMC-1-8 (Assay 7). It counts as cell-based. An outline of the steps: as §4
The target of data set [8] is MCL-1 (Homo sapiens (Human), UniProt Q07820, K194A/K197A/R201A). In words: Protein-protein interaction assay MCL-1/Noxa BH3 peptide (MCL-1 assay, TR-FRET). The data set is classed as binding. The conditions noted are these: MCL-1 Assay IC50 (median). How it is done: The dose-dependent inhibition by the compounds described in this invention of the interaction between MCL-1 and the BH3 domain of Noxa (both human) was determined using a steady state binding competition assay with time-resolved fluorescence energy transfer (TR-FRET) readout. For that purpose MCL-1 (amino acids 173-321, N-terminal fused to Maltose Binding Protein (MBP) SEQ ID 1)) and a synthetic Noxa BH3-derived peptide of sequence Biotin-PEG2-PEG2-PAELEVE-Nva-[…]-amide (SEQ ID 2) served as protein receptor and tracer ligand respectively. The MBP-MCL-1 was purchased from Beryllium (Bedford, Mass., USA). The expression and purification of this protein construct has been described elsewhere (DOI:10.1371/journal.pone.0125010). The Noxa BH3-derived peptide can be obtained from e.g. Biosyntan (Berlin, Germany).
For that, 100-fold concentrated DMSO solutions were prepared by serial dilutions (1:3.4) of a 2 mM stock solution in a clear, 384-well microtiter plate (Greiner Bio-One, Frickenhausen, Germany). From there, 50 nl were transferred in a dark test plate (Greiner Bio-One, Frickenhausen, Germany). The assay was initiated by addition of 2 μL of a 2,5-fold concentrated MBP-MCL-1 solution (usually for a 1 nM end concentration in 5 μL reaction volume) in aqueous assay buffer [50 mM Tris/HCl pH 7, 100 mM sodium chloride (NaCl), 50 mM potassium fluoride (KF), 0.005% Tween-20, 2 mM DTT, 0.1% bovine gamma globulin (BGG)] to the compounds in the assay plate. This was followed by a 10-minute incubation step at 22° C. for pre-equilibration of the putative complex between MBP-MCL-1 and the compounds.
The mixture was incubated in the dark for one hour at 22° C. and then overnight at 4° C. The formation of MCL-1/Noxa complexes was determined by measuring the resonance energy transfer of the anti-MBP-Eu-cryptate antibody to the streptavidin-XL665 present in the reaction.
For that purpose, the fluorescence emission at 620 nm and 665 nm after excitation at 330-350 nm was measured in a TR-FRET measuring instrument, for instance a Rubystar or a Pherastar (both from BMG Lab Technologies, Offenburg, Germany) or a Viewlux (Perkin-Elmer). The ratio of the emission at 665 nm and at 622 nm was used as indicator of the amount of MCL-1/NOXA complexes present.
as §1

Data set [9] concerns SUDHL5 cells. Description: Antiproliferation assay SUDHL5 (Assay 7). It counts as cell-based. The settings on record: 72 h, CellTiter-Glo, read-out: Antiproli SUDHL5 IC50 (median). An outline of the steps: as §4
Setting [10] is: read-out: Caspase SUDHL5 EC50 (median); caspase-3/7 induction, 3 h.
Setting [11] is: read-out: Caspase SUDHL10 EC50 (median); caspase-3/7 induction, 3 h.
Where [12] appears, read: read-out: Antiproli HMC-1-8 IC50 median; 72 h, CellTiter-Glo.
The mark [13] stands for this setting: caspase-3/7 induction, 3 h; read-out: Caspase SUDHL5 EC50 (median).
Setting [14] is: caspase-3/7 induction, 3 h; read-out: Caspase SUDHL10 EC50 (median).

BCL-XL, sequence (Q07817 1-212): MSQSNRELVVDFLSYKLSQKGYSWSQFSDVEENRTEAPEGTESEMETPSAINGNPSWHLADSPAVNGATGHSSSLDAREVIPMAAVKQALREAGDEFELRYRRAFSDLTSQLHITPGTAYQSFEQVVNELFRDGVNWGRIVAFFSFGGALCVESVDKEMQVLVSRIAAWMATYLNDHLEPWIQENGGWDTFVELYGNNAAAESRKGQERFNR
MCL-1, sequence (Q07820 whole entry, looked up, stated change not applied, the tested form may be a part): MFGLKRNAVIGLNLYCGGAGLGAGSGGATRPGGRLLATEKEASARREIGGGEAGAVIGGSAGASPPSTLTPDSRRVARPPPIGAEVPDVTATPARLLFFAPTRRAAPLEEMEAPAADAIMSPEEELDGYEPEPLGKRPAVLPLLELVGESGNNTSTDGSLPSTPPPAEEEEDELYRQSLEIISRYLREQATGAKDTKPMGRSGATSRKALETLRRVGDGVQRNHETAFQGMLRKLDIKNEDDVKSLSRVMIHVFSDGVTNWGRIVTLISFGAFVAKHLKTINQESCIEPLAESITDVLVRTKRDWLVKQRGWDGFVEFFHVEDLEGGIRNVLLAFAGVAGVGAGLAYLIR

Take `CCc1c2c(nn1C)C(C(F)(F)F)OCCCCn1c(C(=O)O)c(CCCOc3cccc4ccccc34)c3ccc(Cl)c-2c31` (single isomer, unassigned; enantiomer 2) [Example 34, (−)-4-chloro-3-ethyl-2-methyl-7-{3-[(naphthalen-1-yl)oxy]propyl}-15-(trifluoromethyl)-2,10,11,12,13,15-hexahydropyrazolo[4′,3′:9,10][1,6]oxazacycloundecino[8,7,6-hi]indole-8-carboxylic Acid—N-ethylethanamine Salt (Enantiomer 2)]: the IC50 in data set [1] is more than 20 µM; in data set [4], 7100 nM; in data set [5], 26000 nM; in data set [6] (read-out: Antiproli AMO-1 IC50 median; 72 h, CellTiter-Glo) it was 30.9 µM; in data set [7] (setting [12]) it was 20.7 µM. The EC50 in data set [2] (setting [10]) and in data set [3] (setting [11]) was more than 33000 nM in each case.

For the compound `Cc1c2c(nn1C)C(CCN1CCOCC1)OCCCCn1c(C(=O)O)c(CCCOc3cccc4ccccc34)c3cccc-2c31` (single isomer, unassigned; stereoisomer 1) [Example 5, 2,3-dimethyl-15-[2-(morpholin-4-yl)ethyl]-7-[3-(naphthalen-1-yloxy)propyl]-2,10,11,12,13,15-hexahydropyrazolo[4′,3′:9,10][1,6]oxazacycloundecino[8,7,6-hi]indole-8-carboxylic Acid (Stereoisomer 1)], the IC50 amounted to 1.2 nM in data set [8], 340 nM in data set [4], 490 nM in data set [5] and 440 nM in [9]. Besides, the results for the EC50 in data set [2] (setting [13]) and in data set [3] (setting [14]) were 300 nM and 520 nM, respectively.

In the case of `CCc1c2c(nn1C)C(C1CC1)OCCCCn1c(C(=O)O)c(CCCOc3cccc4cc(F)ccc34)c3ccc(Cl)c-2c31` (single isomer, unassigned; enantiomer 2) [Example 40, (−)-4-chloro-15-cyclopropyl-3-ethyl-7-{3-[(6-fluoronaphthalen-1-yl)oxy]propyl}-2-methyl-2,10,11,12,13,15-hexahydropyrazolo[4′,3′:9,10][1,6]oxazacycloundecino[8,7,6-hi]indole-8-carboxylic Acid—N-ethylethanamine Salt (Enantiomer 2)], the half-inhibitory concentration (IC50) in data set [1] was more than 20 µM; in [4], 20000 nM; in data set [5] it was 29000 nM; in [7] (setting [12]), 23.2 µM. For the same compound, the results for the EC50 in data set [2] (setting [10]) and in [3] (setting [11]) were more than 33000 nM and 25000 nM, respectively.

On to `CCc1c2c(nn1C)C(CCN(C)C)OCCCCn1c(C(=O)O)c(CCCOc3cccc4cc(F)ccc34)c3ccc(Cl)c-2c31` (single isomer, unassigned) [Example 83, 4-chloro-15-[2-(dimethylamino)ethyl]-3-ethyl-7-{3-[(6-fluoronaphthalen-1-yl)oxy]propyl}-2-methyl-2,10,11,12,13,15-hexahydropyrazolo[4′,3′:9,10][1,6]oxazacycloundecino[8,7,6-hi]indole-8-carboxylic Acid], for which the EC50 amounted to 230 nM in data set [2] (setting [13]) and 340 nM in data set [3] (setting [14]). The IC50 in data set [4] was 270 nM; in data set [5], 330 nM; in data set [9] it was 420 nM; in data set [6] (72 h, CellTiter-Glo; read-out: Antiproli AMO-1 IC50 median) it was 0.65 µM; in data set [7] (72 h, CellTiter-Glo; read-out: Antiproli HMC-1-8 IC50 median) it was 8.74 µM.

Turning to `Cc1c2c(nn1C)C(CCN1CCOCC1)OCCCCn1c(C(=O)O)c(CCCOc3cccc4ccccc34)c3cccc-2c31` (racemic) [Example 4, (rac)-2,3-dimethyl-15-[2-(morpholin-4-yl)ethyl]-7-[3-(naphthalen-1-yloxy)propyl]-2,10,11,12,13,15-hexahydropyrazolo[4′,3′:9,10][1,6]oxazacycloundecino[8,7,6-hi]indole-8-carboxylic Acid (Mixture of Stereoisomers)], the IC50 in data set [8] turned out to be 1.1 nM; in data set [4] (Homo sapiens, SU-DHL-5, 5 h), 550 nM; in data set [5] (Homo sapiens, SU-DHL10, 5 h), 1100 nM; in data set [9] (Homo sapiens, SU-DHL-5, 72 h), 500 nM. The EC50 in [2] (Homo sapiens, SU-DHL-5, 3 h, caspase-3/7 induction, 3 h; read-out: Caspase SUDHL5 EC50 (median)) amounted to 520 nM; in [3] (Homo sapiens, SU-DHL10, 3 h, caspase-3/7 induction, 3 h; read-out: Caspase SUDHL10 EC50 (median)), 990 nM.
